The values that follow come from patent US5300672A (priority 1992, dated 1994).

Like-named read-outs stand apart in the source and are kept apart here.

Assay [1] concerns Pseudoperonospora cubensis. The assay is described as follows: whole plant or invertebrate. The assay is classed as in vivo.
Assay [2] has as its system Puccinia graminis (f. sp. tritici Race 15B-2). The assay is described as follows: whole plant or invertebrate. It is filed as in vivo. The settings on record: Puccinia graminis, 336 h, read-out: % Control WSR.
The subject of assay [3] is Puccinia recondita (f. sp. tritici Races PKB and PLD). The assay is described as follows: whole plant or invertebrate. The assay is classed as in vivo.
Another assay deals with Pseudomonas fluorescens. In words: Alternate Minimum Inhibitory Concentrations Test (Table 4), Ps.fl. It is filed as cell-based. The settings on record: Table 4 alternate test, 250 ppm to 0.8 ppm in TSB, 72 hours, 30° C.; for MIC: Pseudomonas fluorescens, read-out: MIC Ps.fl. Summed up:
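MIC taken as lowest concentration showing no growth after 72 h incubation at 30 °C in TSB. Twofold dilution series spanned 250 down to 0.8 ppm, wells inoculated with phosphate-buffer-diluted 24 h culture.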

The test system of assay [4] is Erysiphe graminis (f. sp. tritici). The assay is described as follows: whole plant or invertebrate. It is filed as in vivo.
For assay [5], the system named is Pellicularia filamentosa (f. sp. sasiki). In words: whole plant or invertebrate. It is filed as in vivo. Particulars: for pest or weed control at 100 ppm / pest or weed control at 200 ppm: 120 h, read-out: % Control RSB.
For another assay, the system named is Phytophthora infestans. In words: whole plant or invertebrate. The assay is classed as in vivo. Particulars: for pest or weed control at 100 ppm / pest or weed control at 200 ppm: Phytophthora infestans, in Solanum lycopersicum, 96 h.
For another assay, the system named is Piricularia oryzae. The assay is described as follows: whole plant or invertebrate. It is filed as in vivo.
[6] abbreviates: Pseudoperonospora cubensis, in Cucumis sativus, 168 h, read-out: % Control CDM.
Where [7] appears, read: Puccinia recondita, 240 h, read-out: % Control WLR.
The mark [8] stands for this setting: Blumeria graminis, read-out: % Control WPM.
[9] abbreviates: Pyricularia oryzae, read-out: % Control RB, application rate 100 ppm.
Where [10] appears, read: Pyricularia oryzae, read-out: % Control RB, application rate 200 ppm.
Where [11] appears, read: Pyricularia oryzae, read-out: % Control RB.
Where [12] appears, read: read-out: % Control TLB, application rate 100 ppm.

As to `CCCCCCCCNC(=O)/C=C\SC(=O)c1ccc(F)cc1` [Compound 3, N-octyl-cis-3-[(4-fluorobenzoyl)thio]acrylamide], in assay [1] (setting [6]), the pest or weed control at 50 ppm stood at 85%. For the same compound, in assay [2], the pest or weed control at 200 ppm came out at 75%. In addition, the pest or weed control at 100 ppm worked out at 0% in assay [3] (setting [7]); 0% in assay [4] (setting [8]); 0% in assay [5]; 90% in the assay on Phytophthora infestans (read-out: % Control TLB); 80% in the assay with Piricularia oryzae (setting [9]). Further, the MIC (as a rule, the lowest concentration found to suppress growth) with Pseudomonas fluorescens was greater than 250 µg/mL.
Turning to `CCCCCCCCNC(=O)/C=C\SC(=O)C1CCCCC1` [Compound 4, N-octyl-cis-3-(cyclohexanecarbonylthio)acrylamide], the pest or weed control at 50 ppm in assay [1] (setting [6]) is 99%. In assay [2], the pest or weed control at 200 ppm was 50%. Moreover, the pest or weed control at 100 ppm in assay [3] (setting [7]) stood at 0%; in assay [4] (setting [8]) it was 0%; in assay [5], 0%; with Phytophthora infestans (read-out: % Control TLB), 90%; in the assay on Piricularia oryzae (setting [9]), 80%. In addition, in the assay on Pseudomonas fluorescens, the MIC is greater than 250 µg/mL.
`CCCCCCCCNC(=O)/C=C\SC(=O)c1ccccc1Br` [Compound 5, N-octyl-cis-3-[(2-bromobenzoyl)thio]acrylamide]: the pest or weed control at 50 ppm in assay [1] (setting [6]) was determined as 50%. Further, the pest or weed control at 200 ppm in assay [2] came out at 75%. The pest or weed control at 100 ppm in assay [3] (setting [7]) was found to be 0%; in assay [4] (setting [8]), 0%; in assay [5], 0%; with Phytophthora infestans (read-out: % Control TLB), 90%. For the same compound, the MIC in the assay with Pseudomonas fluorescens is greater than 250 µg/mL. Moreover, the pest or weed control at 25 ppm in the assay on Piricularia oryzae (Pyricularia oryzae, read-out: % Control RB, application rate 25 ppm) was 80%.
As to `CCCCCCCCNC(=O)/C=C\SC(=O)c1cccnc1Cl` [Compound 6, N-octyl-cis-3-[3-(2-chloropyridine)carbonylthio]acrylamide], the pest or weed control at 50 ppm in assay [1] (setting [6]) amounted to 85%. The pest or weed control at 200 ppm in assay [2] was determined as 90%. Also, the pest or weed control at 100 ppm in assay [3] (setting [7]) turned out to be 0%; in assay [4] (setting [8]) it was 0%; in assay [5] it was 0%; in the assay with Phytophthora infestans (read-out: % Control TLB), 90%; in the assay with Piricularia oryzae (setting [9]), 50%. Besides, the MIC with Pseudomonas fluorescens was greater than 250 µg/mL.
As for `CCCCCCCCNC(=O)/C=C\SC(=O)Cc1ccccc1` [Compound 12, N-octyl-cis-3-(phenylacetylthio)acrylamide], the pest or weed control at 50 ppm in assay [1] (setting [6]) worked out at 85%. Further, the pest or weed control at 200 ppm (in assay [2]; in the assay on Piricularia oryzae (setting [10])) was 90% each time. Besides, the pest or weed control at 100 ppm in assay [3] (setting [7]) is 0%; in assay [4] (setting [8]) it was 0%; in assay [5], 0%; with Phytophthora infestans (read-out: % Control TLB), 90%. For the same compound, the MIC in the assay with Pseudomonas fluorescens was greater than 250 µg/mL.
As for `CCCCCCCCNC(=O)/C=C\SC(=O)/C=C/c1ccccc1` [Compound 14, N-octyl-cis-3-[(trans-3-phenylprop-2-enoyl)thio]acrylamide], in assay [1] (setting [6]), the pest or weed control at 50 ppm was determined as 50%. Moreover, the pest or weed control at 200 ppm in assay [2] came out at 75%. The pest or weed control at 100 ppm is 0% in assay [3] (setting [7]); 0% in assay [4] (setting [8]); 0% in assay [5]; 90% with Phytophthora infestans (read-out: % Control TLB); 100% with Piricularia oryzae (setting [11]). In the assay on Pseudomonas fluorescens, the MIC was greater than 250 µg/mL.
For `CCCCCCCCNC(=O)/C=C\SC(=O)c1ccco1` [Compound 15, N-octyl-cis-3-(2-furoylthio)acrylamide], the pest or weed control at 50 ppm in assay [1] (setting [6]) amounted to 50%. Also, in assay [2], the pest or weed control at 200 ppm is 90%. The pest or weed control at 100 ppm was determined as 95% in assay [3] (setting [7]); 0% in assay [4] (setting [8]); 0% in assay [5]; 95% in the assay on Phytophthora infestans (setting [12]); 100% in the assay on Piricularia oryzae (setting [11]). The MIC in the assay on Pseudomonas fluorescens is greater than 250 µg/mL.
Turning to `CCCCCCCCNC(=O)/C=C\SC(=O)c1ccc(OC)cc1` [Compound 16, N-octyl-cis-3-[(4-methoxybenzoyl)thio]acrylamide], in assay [1] (setting [6]), the pest or weed control at 12 ppm stood at 50%. The pest or weed control at 100 ppm in assay [2] is 75%; in assay [3] (setting [7]) it was 75%; in assay [4] (setting [8]), 0%; in assay [5], 0%; in the assay on Phytophthora infestans (read-out: % Control TLB), 90%. For the same compound, the MIC with Pseudomonas fluorescens was greater than 250 µg/mL. The pest or weed control at 25 ppm in the assay with Piricularia oryzae (setting [11]) is 100%.
With `CCCCCCCCNC(=O)/C=C\SC(=O)c1ccc([N+](=O)[O-])cc1` [Compound 46, N-octyl-cis-3-[(4-nitrobenzoyl)thio]acrylamide], in assay [1] (setting [6]), the pest or weed control at 50 ppm came out at 99%. Moreover, the pest or weed control at 200 ppm in assay [2] came to 100%; in the assay with Piricularia oryzae (setting [10]) it was 75%. For the same compound, in assay [3] (setting [7]), the pest or weed control at 25 ppm is 80%. For the same compound, the MIC with Pseudomonas fluorescens was greater than 250 µg/mL. The pest or weed control at 100 ppm was 0% in assay [4] (setting [8]) and 95% in the assay on Phytophthora infestans (setting [12]).
As to `CCCCCCCCNC(=O)/C=C\SC(=O)C1CC1` [Compound 49, N-octyl-cis-3-(cyclopropanecarbonylthio)acrylamide], the pest or weed control at 50 ppm in assay [1] (setting [6]) amounted to 99%. Moreover, in assay [2], the pest or weed control at 200 ppm was 75%. Besides, the MIC with Pseudomonas fluorescens is greater than 250 µg/mL. In the assay with Phytophthora infestans (read-out: % Control TLB), the pest or weed control at 100 ppm amounted to 80%. Also, the pest or weed control at 12 ppm with Piricularia oryzae (Pyricularia oryzae, read-out: % Control RB, application rate 12 ppm) worked out at 50%.
On to `CCCCCCCCNC(=O)/C=C\SC(=O)c1sccc1C` [Compound 50, N-octyl-cis-3-[(3-methyl-2-thiophene)carbonylthio]acrylamide], for which, in assay [1] (setting [6]), the pest or weed control at 50 ppm turned out to be 85%. The results for the pest or weed control at 200 ppm (in assay [2]; in the assay with Piricularia oryzae (setting [10])) were 75% and 0%, respectively. For the same compound, the MIC in the assay with Pseudomonas fluorescens was greater than 250 µg/mL. Also, in the assay with Phytophthora infestans (read-out: % Control TLB), the pest or weed control at 100 ppm came out at 80%.
Regarding `CCCCCCCCNC(=O)/C=C\SC(=O)CC=Cc1ccccc1` [Compound 88, N-octyl-cis-3-[(4-phenylbut-3-enoyl)thio]acrylamide], the pest or weed control at 200 ppm in assay [1] (setting [6]) stood at 70%; in assay [4] (setting [8]), 0%; in the assay with Phytophthora infestans (read-out: % Control TLB) it was 90%; in the assay on Piricularia oryzae (setting [10]), 90%. Also, the pest or weed control at 100 ppm in assay [2] came out at 0%. In assay [3] (setting [7]), the pest or weed control at 50 ppm is 80%. For the same compound, in the assay with Pseudomonas fluorescens, the MIC was greater than 250 µg/mL.
`CCCCCCCCNC(=O)/C=C\SC(=O)CC1CCCCC1` [Compound 94, N-octyl-cis-3-(cyclohexaneacetylthio)acrylamide]: the pest or weed control at 200 ppm in assay [1] (setting [6]) was found to be 70%; in assay [3] (setting [7]) it was 50%; in assay [4] (setting [8]), 85%; in assay [5] it was 0%; in the assay with Phytophthora infestans (read-out: % Control TLB), 80%; with Piricularia oryzae (setting [10]), 90%. Also, the MIC in the assay on Pseudomonas fluorescens is greater than 250 µg/mL.
Turning to `CCCCCCCCNC(=O)/C=C\SC(=O)c1ccnc2ccccc12` [Compound 95, N-octyl-cis-3-[(4-quinoline)carbonylthio]acrylamide], the pest or weed control at 200 ppm in assay [1] (setting [6]) amounted to 95%; in assay [3] (setting [7]) it was 50%; in assay [4] (setting [8]), 0%; in assay [5], 0%; with Phytophthora infestans (read-out: % Control TLB), 80%. In addition, in the assay with Pseudomonas fluorescens, the MIC is greater than 250 µg/mL. Besides, the pest or weed control at 50 ppm with Piricularia oryzae (setting [11]) stood at 70%.
Take `CCCCCCCCNC(=O)/C=C\SC(=O)c1cc([N+](=O)[O-])cc([N+](=O)[O-])c1` [Compound 97, N-octyl-cis-3-[(3,5-dinitrobenzoyl)thio]acrylamide]: the pest or weed control at 50 ppm in assay [1] (setting [6]) is 0%. Further, the pest or weed control at 200 ppm was determined as 0% in assay [3] (setting [7]), 0% in assay [5], 80% with Phytophthora infestans (read-out: % Control TLB) and 70% with Piricularia oryzae (setting [11]). Moreover, in the assay on Pseudomonas fluorescens, the MIC was greater than 250 µg/mL. In assay [4] (setting [8]), the pest or weed control at 12 ppm is 50%.
Take `CCCCCCCCNC(=O)/C=C\SC(=O)c1ccc([N+](=O)[O-])c([N+](=O)[O-])c1` [Compound 112, N-octyl-cis-3-[(3,4-dinitrobenzoyl)thio]acrylamide]: the pest or weed control at 200 ppm in assay [1] (setting [6]) stood at 99%; in assay [3] (setting [7]), 50%; in assay [4] (setting [8]) it was 0%; in the assay with Piricularia oryzae (setting [10]), 0%. Further, the pest or weed control at 100 ppm in assay [2] was 50%; in the assay with Phytophthora infestans (read-out: % Control TLB) it was 90%. Also, the MIC in the assay on Pseudomonas fluorescens was greater than 250 µg/mL.
As for `CC(C)(C)CC(C)(C)NC(=O)/C=C\SC(=O)c1ccccc1` [Compound 114], the pest or weed control at 200 ppm in assay [1] (setting [6]) was determined as 95%; in assay [3] (setting [7]) it was 0%; in assay [4] (setting [8]), 0%; in the assay with Phytophthora infestans (read-out: % Control TLB) it was 90%; in the assay on Piricularia oryzae (setting [10]), 0%. In assay [2], the pest or weed control at 100 ppm was 50%. Also, in the assay on Pseudomonas fluorescens, the MIC was greater than 250 µg/mL.
In the case of “N-octyl-cis-3-(ferrocenecarbonylthio)acrylamide [Compound 81]”, in assay [1] (in vivo), the “% Control CDM” value is reported as 0 % Control. Moreover, the “% Control WLR” value in assay [3] (in vivo) is 25 % Control. Besides, in the assay on Pseudomonas fluorescens, the “MIC Ps.fl” value is recorded as greater than 250 Ppm. Moreover, the “% Control WPM” value in assay [4] (in vivo) is recorded as 85 % Control. Besides, the “% Control RSB” value in assay [5] (in vivo) came to 0 % Control. The “% Control TLB” value with Phytophthora infestans (in vivo) came to 100 % Control. Besides, the “% Control RB” value in the assay with Piricularia oryzae (in vivo) turned out to be 75 % Control.
